Key:
Format in all cases: in vivo
[1] = system: Brachiaria platyphylla (Griseb.) Nash or Urochloa platyphylla (Nash) R.D. Webster (BRAPP); test: Postemergence foliar-applied herbicidal mixtures, weed control in direct seeded rice (greenhouse)
From the text: (§1) Seeds or nutlets of the desired test plant species were planted in a soil matrix prepared by mixing a loam or sandy loam soil (e.g., 28.6 percent silt, 18.8 percent clay, and 52.6 percent sand, with a pH of about 5.8 and an organic matter content of about 1.8 percent) and calcareous grit in an 80 to 20 ratio. The soil matrix was contained in plastic pots with a volume of 1 quart and a surface area of 83.6 square centimeters (cm^2). When required to ensure good germination and healthy plants, a fungicide treatment and/or other chemical or physical treatment was applied. The plants were grown for 8-22 days in a greenhouse with an approximate 14 h photoperiod which was maintained at about 29° C. during the day and 26° C. during the night. Nutrients (Peters Excel® 15-5-15 5-Ca 2-Mg and iron chelate) were applied in the irrigation solution as needed and water was added on a regular basis. Supplemental lighting was provided with overhead metal halide 1000-Watt lamps as necessary. The plants were employed for testing when they reached the first through fourth true leaf stage.
(§2) Treatments consisted of the acid or esters of 4-amino-3-chloro-5-fluoro-6-(4-chloro-2-fluoro-3-methoxy-phenyl) pyridine-2-carboxylic acid (Compound A), each formulated as an SC (suspension concentrate), and various herbicidal components alone and in combination. Forms of compound A were applied on an acid equivalent basis.
(§3) Other herbicidal components were applied on an active ingredient basis and included cellulose biosynthesis-inhibiting (CBI) herbicides isoxaben formulated as Gallery® 75DF and indaziflam formulated as Specticle® 20WSP.
(§4) Treatment requirements were calculated based upon the rates being tested, the concentration of active ingredient or acid equivalent in the formulation, and a 12 mL application volume at a rate of 187 L/ha.
(§5) For treatments comprised of formulated compounds, measured amounts of compounds were placed individually in 25 mL glass vials and diluted in a volume of 1.25% (v/v) Agri-Dex® crop oil concentrated to obtain 12× stock solutions. […] Application solutions were prepared by adding an appropriate amount of each stock solution (e.g., 1 mL) and diluted to the appropriate final concentrations with the addition of 10 mL of an aqueous mixture of 1.25% (v/v) crop oil concentrate so that the final spray solutions contained 1.25+/−0.05% (v/v) crop oil concentrate.
(§6) All stock solutions and applications solutions were visually inspected for compound compatibility prior to application. Spray solutions were applied to the plant material with an overhead Mandel track sprayer equipped with a 8002E nozzles calibrated to deliver 187 L/ha over an application area of 0.503 m^2 at a spray height of 18 to 20 inches (46 to 50 cm) above average plant canopy height. Control plants were sprayed in the same manner with the solvent blank.
(§7) The treated plants and control plants were placed in a greenhouse as described above and watered by sub-irrigation to prevent wash-off of the test compounds. After approximately 3 weeks, the condition of the test plants as compared with that of the untreated plants was determined visually and scored on a scale of 0 to 100 percent where 0 corresponds to no injury or growth inhibition and 100 corresponds to complete kill.
(§8) Colby's equation was used to determine the herbicidal effects expected from the mixtures (Colby, S. R. 1967. Calculation of the synergistic and antagonistic response of herbicide combinations. Weeds 15:20-22).
(§9) The following equation was used to calculate the expected activity of mixtures containing two active ingredients, A and B: Expected=A+B−(A×B/100)
(§10) A=observed efficacy of active ingredient A at the same concentration as used in the mixture.
(§11) B=observed efficacy of active ingredient B at the same concentration as used in the mixture.

Cyperus iria L. (CYPIR) = test: as above
From the text: as §1, §2, §3, §4, §5, §6, §7, §8, §9, §10, §11

[2] = system: Digitaria sanguinalis (L.) Scop. (DIGSA); test: as above
From the text: as §1, §2, §3, §4, §5, §6, §7, §8, §9, §10, §11

[3] = system: Ipomoea hederacea Jacq. (IPOHE); test: as above
From the text: as §1, §2, §3, §4, §5, §6, §7, §8, §9, §10, §11

[4] = system: Leptochloa chinensis (L.) Nees (LEFCH); test: as above
From the text: as §1, §2, §3, §4, §5, §6, §7, §8, §9, §10, §11

[5] = system: Ipomoea hederacea (L.) Jacq. (IPOHE); test: Pre-emergence soil-applied herbicidal mixtures for weed control (greenhouse)
From the text: Seeds or nutlets of the desired test plant species were planted in a soil matrix prepared by mixing a loam soil (e.g., 32 percent silt, 23 percent clay, and 45 percent sand, with a pH of about 6.5 and an organic matter content of about 1.9 percent) and calcareous grit in an 80 to 20 ratio. The soil matrix was contained in plastic pots with a volume of 1 quart and a surface area of 83.6 square centimeters (cm^2).
Treatments consisted of the benzyl ester of 4-amino-3-chloro-5-fluoro-6-(4-chloro-2-fluoro-3-methoxy-phenyl)pyridine-2-carboxylic acid (compound A) formulated as an SC (suspension concentrate) and various herbicidal components alone and in combination. Forms of compound A were applied on an acid equivalent basis.
Other herbicidal components were applied on an acid equivalent or active ingredient basis and included the cellulose biosynthesis inhibiting herbicides, isoxaben formulated as Gallery® 75DF and indaziflam formulated as Specticle® 20WSP.
as §4
as §5, with “oil concentrate (COC)” for “oil concentrated”, “(v/v) COC” for “(v/v) crop oil concentrate”, “contained 1.25%” for “contained 1.25+/−0.05%”, “(v/v) COC.” for “(v/v) crop oil concentrate.”
as §6, with “soil” for “plant material”, “18” for “18 to 20”, “(46” for “(46 to 50”, “pot” for “plant canopy”, “pots” for “plants”
The treated and control pots were placed in a greenhouse and top watered as needed. When required to ensure good germination and healthy plants, a fungicide treatment and/or other chemical or physical treatment was applied. The pots were maintained in a greenhouse with an approximate 14 hr. photoperiod which was maintained at about 29° C. during the day and 26° C. during the night. Nutrients (Peters® Excel 15-5-15 5-Ca 2-Mg) were applied in the irrigation solution as needed and water was added on a regular basis. Supplemental lighting was provided with overhead metal halide 1000-Watt lamps as necessary. After approximately 4 weeks, the condition of the test plants as compared with that of the untreated plants was determined visually and scored on a scale of 0 to 100 percent where 0 corresponds to no injury or growth inhibition and 100 corresponds to complete kill.
as §8, §9, §10, §11

[6] = Compound A Benzyl Ester 4.38 g ae/ha alone
[7] = Compound A Benzyl Ester 8.75 g ae/ha alone
[8] = Compound A Benzyl Ester 17.5 g ae/ha alone

COc1c(Cl)ccc(-c2nc(C(=O)OCc3ccccc3)c(Cl)c(N)c2F)c1F [Compound A Benzyl Ester, benzyl ester of 4-amino-3-chloro-5-fluoro-6-(4-chloro-2-fluoro-3-methoxy-phenyl)pyridine-2-carboxylic acid]
Visual Weed Control (%) - 20 DAA Obs [1, 6]: 70% | Visual Weed Control (%) - 20 DAA Obs [1, 7]: 80% | Visual Weed Control (%) - 20 DAA Obs [1, 8]: 90% | Visual Weed Control (%) - 20 DAA Obs (Cyperus iria L. (CYPIR); [6]): 70% | Visual Weed Control (%) - 21 DAA Obs [2, 6]: 10% | Visual Weed Control (%) - 20 DAA Obs [2, 7]: 30% | Visual Weed Control (%) - 21 DAA Obs [2, 7]: 45% | Visual Weed Control (%) - 20 DAA Obs [2, 8]: 30% | Visual Weed Control (%) - 21 DAA Obs [2, 8]: 70% | Visual Weed Control (%) - 20 DAA Obs [3, 6]: 10% | Visual Weed Control (%) - 20 DAA Obs [3, 7]: 10% | Visual Weed Control (%) - 20 DAA Obs [3, 8]: 15% | Visual Weed Control (%) - 21 DAA Obs [4, 6]: 30% | Visual Weed Control (%) - 21 DAA Obs [4, 7]: 35% | Visual Weed Control (%) - 21 DAA Obs [4, 8]: 35% | Visual Weed Control (%) - 28 DAA IPOHE Obs ([5]; Compound A Benzyl Ester 16 g ae/ha alone): 13% | Visual Weed Control (%) - 28 DAA IPOHE Obs ([5]; Compound A Benzyl Ester 32 g ae/ha alone): 23%

CCC(C)(CC)c1cc(NC(=O)c2c(OC)cccc2OC)on1 [Isoxaben, N-[3-(1-ethyl-1-methylpropyl)-5-isoxazolyl]-2,6-dimethoxybenzamide, reference compound]
Visual Weed Control (%) - 20 DAA Obs ([1]; Isoxaben 140 g ai/ha alone): 0% | Visual Weed Control (%) - 20 DAA Obs ([1]; Isoxaben 280 g ai/ha alone): 0% | Visual Weed Control (%) - 20 DAA Obs ([1]; Isoxaben 560 g ai/ha alone): 20% | Visual Weed Control (%) - 20 DAA Obs (Cyperus iria L. (CYPIR); Isoxaben 140 g ai/ha alone): 10% | Visual Weed Control (%) - 20 DAA Obs (Cyperus iria L. (CYPIR); Isoxaben 280 g ai/ha alone): 60% | Visual Weed Control (%) - 20 DAA Obs (Cyperus iria L. (CYPIR); Isoxaben 560 g ai/ha alone): 50% | Visual Weed Control (%) - 20 DAA Obs ([2]; Isoxaben 280 g ai/ha alone): 10% | Visual Weed Control (%) - 20 DAA Obs ([2]; Isoxaben 560 g ai/ha alone): 20% | Visual Weed Control (%) - 20 DAA Obs ([3]; Isoxaben 140 g ai/ha alone): 15% | Visual Weed Control (%) - 20 DAA Obs ([3]; Isoxaben 280 g ai/ha alone): 25% | Visual Weed Control (%) - 20 DAA Obs ([4]; Isoxaben 140 g ai/ha alone): 0% | Visual Weed Control (%) - 20 DAA Obs ([4]; Isoxaben 280 g ai/ha alone): 0%

Reference: patent publication US8901035B2, “Herbicidal compositions comprising 4-amino-3-chloro-5-fluoro-6-(4-chloro-2-fluoro-3-methoxyphenyl) pyridine-2-carboxylic acid or a derivative thereof and cellulose biosynthesis inhibitor herbicides” (Dow AgroSciences LLC, priority 2012, dated 2014)
